Source: ChEMBL document CHEMBL1909046, “DrugMatrix in vitro pharmacology data”

What was measured:
[1] = target: Beta-2 adrenergic receptor (Homo sapiens, UniProt P07550); experiment: DRUGMATRIX: Adrenergic beta2 radioligand binding (ligand: [3H] CGP-12177); assay type: cell membranes, CHO, Membrane; details: cho; Not Active = under 50% inhibition at 10 µM
[2] = target: Platelet-activating factor receptor (Homo sapiens, UniProt P25105); assay type: tissue-based; also: in other assays of this panel Not Active means under 50% inhibition at 10 µM
Sequence of Platelet-activating factor receptor (P25105 whole entry): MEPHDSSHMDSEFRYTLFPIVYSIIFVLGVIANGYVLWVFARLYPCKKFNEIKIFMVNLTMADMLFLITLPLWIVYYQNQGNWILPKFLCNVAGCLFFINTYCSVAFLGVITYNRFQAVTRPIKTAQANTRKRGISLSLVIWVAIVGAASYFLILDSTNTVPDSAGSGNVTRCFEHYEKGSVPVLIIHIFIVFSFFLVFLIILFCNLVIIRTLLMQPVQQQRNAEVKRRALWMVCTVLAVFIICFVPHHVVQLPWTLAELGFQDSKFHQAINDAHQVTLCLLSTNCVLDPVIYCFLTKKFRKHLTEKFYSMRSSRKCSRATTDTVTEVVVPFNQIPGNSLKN

[3] = target: T1, Alpha-1D adrenergic receptor (Homo sapiens, UniProt P25100); assay type: cell membranes, HEK293, Membrane; also: in other assays of this panel Not Active means under 50% inhibition at 10 µM
T1 sequence (P25100 whole entry): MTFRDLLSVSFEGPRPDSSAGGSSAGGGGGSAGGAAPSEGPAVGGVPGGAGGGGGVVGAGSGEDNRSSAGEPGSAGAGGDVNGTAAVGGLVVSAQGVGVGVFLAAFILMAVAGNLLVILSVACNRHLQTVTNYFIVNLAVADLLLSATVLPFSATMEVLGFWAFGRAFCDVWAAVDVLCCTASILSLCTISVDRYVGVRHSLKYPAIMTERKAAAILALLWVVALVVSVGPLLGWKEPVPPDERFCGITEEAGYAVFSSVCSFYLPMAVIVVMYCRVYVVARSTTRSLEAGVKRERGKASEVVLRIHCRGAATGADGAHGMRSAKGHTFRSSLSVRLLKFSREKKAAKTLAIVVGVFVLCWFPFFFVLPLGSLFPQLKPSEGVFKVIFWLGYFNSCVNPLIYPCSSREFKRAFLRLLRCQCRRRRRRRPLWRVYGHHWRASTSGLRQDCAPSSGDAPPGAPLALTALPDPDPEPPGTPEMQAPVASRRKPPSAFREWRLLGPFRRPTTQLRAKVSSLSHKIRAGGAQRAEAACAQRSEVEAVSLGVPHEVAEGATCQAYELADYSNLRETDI

[4] = target: D(3) dopamine receptor (Homo sapiens, UniProt P35462); experiment: DRUGMATRIX: Dopamine D3 radioligand binding (ligand: [3H] Spiperone); assay type: cell membranes, CHO, Membrane; details: cho
Sequence of D(3) dopamine receptor (P35462 whole entry): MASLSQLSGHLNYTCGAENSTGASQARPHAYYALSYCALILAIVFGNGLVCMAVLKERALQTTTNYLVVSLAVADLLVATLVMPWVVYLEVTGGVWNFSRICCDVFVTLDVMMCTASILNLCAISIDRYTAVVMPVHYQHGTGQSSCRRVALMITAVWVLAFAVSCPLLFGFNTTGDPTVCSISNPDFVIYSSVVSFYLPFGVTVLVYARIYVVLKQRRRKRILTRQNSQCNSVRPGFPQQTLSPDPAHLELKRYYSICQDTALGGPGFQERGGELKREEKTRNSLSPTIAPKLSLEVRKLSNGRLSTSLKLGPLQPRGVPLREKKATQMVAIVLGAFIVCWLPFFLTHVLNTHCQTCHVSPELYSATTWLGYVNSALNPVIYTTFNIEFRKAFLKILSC

[5] = DRUGMATRIX: Purinergic P2X radioligand binding (ligand: [3H] alpha, beta-Methylene-ATP); assay type: cell membranes, Oryctolagus cuniculus, New Zealand albino, Urinary bladder, Membrane; details: Not Active = under 50% inhibition at 10 µM
[6] = target: C-C chemokine receptor type 2 (Homo sapiens, UniProt P41597); assay type: cell membranes, CHO-K1, Membrane; details: cho-k1; also: in other assays of this panel Not Active means under 50% inhibition at 10 µM
Sequence of C-C chemokine receptor type 2 (P41597 whole entry): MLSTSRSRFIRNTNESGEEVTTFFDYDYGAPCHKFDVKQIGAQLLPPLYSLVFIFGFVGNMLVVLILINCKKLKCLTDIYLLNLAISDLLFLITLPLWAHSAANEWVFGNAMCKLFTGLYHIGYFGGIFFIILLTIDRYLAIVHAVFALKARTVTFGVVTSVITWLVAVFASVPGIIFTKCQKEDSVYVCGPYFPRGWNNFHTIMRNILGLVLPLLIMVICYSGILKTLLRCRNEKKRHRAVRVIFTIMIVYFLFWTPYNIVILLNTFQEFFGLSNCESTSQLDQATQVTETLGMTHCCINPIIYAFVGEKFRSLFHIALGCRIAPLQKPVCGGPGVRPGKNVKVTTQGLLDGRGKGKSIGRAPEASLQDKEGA

| Compound | IC50 [1] | IC50 [2] | IC50 ([3]; hek293) | IC50 [4] | IC50 [5] | Ki [5] | IC50 [6] | Ki [1] | Ki [2] | Ki ([3]; hek293) | Ki [4] | Ki [6] | IC50 ([3]; read-out: IC50) | Ki ([3]; read-out: Ki) |
| --- | --- | --- | --- | --- | --- | --- | --- | --- | --- | --- | --- | --- | --- | --- |
| O=C1CN(/N=C/c2ccc([N+](=O)[O-])o2)C(=O)N1 [NITROFURANTOIN] | Not Active | Not Active | Not Active | Not Active | Not Active | Not Active | Not Active |  |  |  |  |  |  |  |
| NCC(CC(=O)O)c1ccc(Cl)cc1 (centres undefined) [BACLOFEN] | Not Active | Not Active | Not Active | Not Active | Not Active | Not Active | Not Active |  |  |  |  |  |  |  |
| OC[C@H]1O[C@@H]2O[C@H]3[C@H](O)[C@@H](O)[C@@H](O[C@H]4[C@H](O)[C@@H](O)[C@@H](O[C@H]5[C@H](O)[C@@H](O)[C@@H](O[C@H]6[C@H](O)[C@@H](O)[C@@H](O[C@H]7[C@H](O)[C@@H](O)[C@@H](O[C@H]8[C@H](O)[C@@H](O)[C@@H](O[C@H]1[C@H](O)[C@H]2O)O[C@@H]8CO)O[C@@H]7CO)O[C@@H]6CO)O[C@@H]5CO)O[C@@H]4CO)O[C@@H]3CO [BETADEX] | Not Active | Not Active | Not Active | Not Active | Not Active | Not Active | Not Active |  |  |  |  |  |  |  |
| Cl.NC[C@H]1CC[C@H](C(=O)Oc2ccc(CCC(=O)O)cc2)CC1 [CETRAXATE HYDROCHLORIDE] | Not Active | Not Active | Not Active | Not Active | Not Active | Not Active | Not Active |  |  |  |  |  |  |  |
| O=C(NCCN1CCOCC1)c1ccc(Cl)cc1 [MOCLOBEMIDE] | Not Active | Not Active | Not Active | Not Active | Not Active | Not Active | Not Active |  |  |  |  |  |  |  |
| CARBOXYMETHYLCELLULOSE | Not Active | Not Active | Not Active | Not Active | Not Active | Not Active | Not Active | Not Active | Not Active | Not Active | Not Active | Not Active |  |  |
| C[C@@H]1[C@H](O)[C@@H](C)/C=C/C=C/C=C/C=C/C=C/C=C/C=C/[C@H](O[C@@H]2O[C@H](C)[C@@H](O)[C@H](N)[C@@H]2O)C[C@@H]2O[C@](O)(C[C@@H](O)C[C@@H](O)[C@H](O)CC[C@@H](O)C[C@@H](O)CC(=O)O[C@H]1C)C[C@H](O)[C@H]2C(=O)O [AMPHOTERICIN B] | Not Active | Not Active | Not Active | Not Active | Not Active | Not Active | Not Active |  |  |  |  |  |  |  |
| CCN(CCO)CCCC(C)Nc1ccnc2cc(Cl)ccc12 (centres undefined) [HYDROXYCHLOROQUINE] | Not Active | Not Active |  | Not Active | Not Active | Not Active | Not Active |  |  |  |  |  | 4.77 µM | 2.35 µM |
| CCC1(c2ccccc2)C(=O)NC(=O)NC1=O [PHENOBARBITAL] | Not Active | Not Active | Not Active | Not Active | Not Active | Not Active | Not Active |  |  |  |  |  |  |  |
| C=CCN1CC[C@]23c4c5ccc(O)c4O[C@H]2/C(=N/N=C2\CC[C@@]4(O)[C@H]6Cc7ccc(O)c8c7[C@@]4(CCN6CC=C)[C@H]2O8)CC[C@@]3(O)[C@H]1C5 [NALOXONAZINE] | Not Active | Not Active | Not Active | Not Active | Not Active | Not Active | Not Active |  |  |  |  |  |  |  |
| CC(C)(C#N)c1cc(Cn2cncn2)cc(C(C)(C)C#N)c1 [ANASTROZOLE] | Not Active | Not Active | Not Active | Not Active | Not Active | Not Active | Not Active |  |  |  |  |  |  |  |
| OC[C@H]1O[C@@H]2O[C@H]3[C@H](O)[C@@H](O)[C@@H](O[C@H]4[C@H](O)[C@@H](O)[C@@H](O[C@H]5[C@H](O)[C@@H](O)[C@@H](O[C@H]6[C@H](O)[C@@H](O)[C@@H](O[C@H]7[C@H](O)[C@@H](O)[C@@H](O[C@H]1[C@H](O)[C@H]2O)O[C@@H]7CO)O[C@@H]6CO)O[C@@H]5CO)O[C@@H]4CO)O[C@@H]3CO [ALFADEX] | Not Active | Not Active | Not Active | Not Active | Not Active | Not Active | Not Active |  |  |  |  |  |  |  |
| POVIDONE | Not Active | Not Active | Not Active | Not Active | Not Active | Not Active | Not Active | Not Active | Not Active | Not Active | Not Active | Not Active |  |  |
| c1ccc2c(c1)Nc1ccccc1S2 [PHENOTHIAZINE] | Not Active | Not Active | Not Active | Not Active | Not Active | Not Active | Not Active |  |  |  |  |  |  |  |
